According to paper PMC6934184, “Selective DNA-PKcs inhibition extends the therapeutic index of localized radiotherapy and chemotherapy” (The Journal of Clinical Investigation, 2019):

Target: T1, MARK4 (Homo sapiens, UniProt Q96L34)
T1 construct: purchased Thermo Fisher Scientific (Life Technologies) SelectScreen
Assay: SelectScreen Z'LYTE
Format: biochemical
Method in brief: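 NU5455 was profiled across the SelectScreen Broad panel of kinase activity and binding assays. Z'LYTE reactions such as CSF1R ran at apparent Km ATP, while the Adapta CAMK1 assay used ATP listed as 10. Values are given as percent.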

T1 sequence (Q96L34 whole entry): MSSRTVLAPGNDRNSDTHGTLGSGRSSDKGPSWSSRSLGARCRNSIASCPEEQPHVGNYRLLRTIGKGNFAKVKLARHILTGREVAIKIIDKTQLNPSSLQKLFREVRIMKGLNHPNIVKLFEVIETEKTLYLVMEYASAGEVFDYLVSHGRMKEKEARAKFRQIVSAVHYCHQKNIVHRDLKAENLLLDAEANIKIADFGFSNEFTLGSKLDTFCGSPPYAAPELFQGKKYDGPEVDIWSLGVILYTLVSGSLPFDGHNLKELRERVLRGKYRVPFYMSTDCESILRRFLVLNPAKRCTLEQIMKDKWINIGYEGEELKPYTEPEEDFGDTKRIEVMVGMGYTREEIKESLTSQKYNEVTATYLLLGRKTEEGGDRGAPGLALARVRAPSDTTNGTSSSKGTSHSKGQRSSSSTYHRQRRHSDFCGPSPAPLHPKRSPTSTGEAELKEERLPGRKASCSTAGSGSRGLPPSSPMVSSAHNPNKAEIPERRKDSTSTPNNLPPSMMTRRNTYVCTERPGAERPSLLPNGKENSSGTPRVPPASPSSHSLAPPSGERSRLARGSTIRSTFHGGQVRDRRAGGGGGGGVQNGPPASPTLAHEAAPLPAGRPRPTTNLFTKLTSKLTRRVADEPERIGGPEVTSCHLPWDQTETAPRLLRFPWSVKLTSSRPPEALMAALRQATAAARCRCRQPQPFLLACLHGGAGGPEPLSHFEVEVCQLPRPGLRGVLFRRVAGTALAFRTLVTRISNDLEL

CN(C(=O)CN1CCOCC1)c1ccc2sc3c(-c4cccc5c(=O)cc(N6CC7CCC(C6)O7)oc45)cccc3c2c1 [NU5455]
inhibition at 1 µM: -2%
